Laboratory results published in patent US9302999B2, “Substituted triazoles as herbicides” (E. I. DU PONT DE NEMOURS AND COMPANY, priority 2012, dated 2016).

Experiments:
[1] = tested on: panicum, fall (fall panicum Panicum dichotomiflorum); assay: Test F pre-/postemergence: panicum, fall; format: in vivo
Description: (§1) Seeds of plant species selected from corn (Zea mays), soybean (Glycine max), velvetleaf (Abutilon theophrasti), lambsquarters (Chenopodium album), poinsettia, wild (wild poinsettia, Euphorbia heterophylla), pigweed, palmer (palmer pigweed, Amaranthus palmeri), waterhemp (common waterhemp, Amaranthus rudis), surinam grass (Brachiaria decumbens), crabgrass, Brazil (Brazilian crabgrass, Digitaria horizontalis), panicum, fall (fall panicum Panicum dichotomiflorum), crabgrass, large (large crabgrass, Digitaria sanguinalis), foxtail, giant (giant foxtail, Setaria faberii), foxtail, green (green foxtail Setaria viridis), goosegrass (Eleusine indica), ragweed (common ragweed, Ambrosia elatior), barnyardgrass (Echinochloa crus-galli), sandbur (southern sandbur, Cenchrus echinatus), arrowleaf sida (Sida rhombifolia), ryegrass, Italian (Italian ryegrass, Lolium multiflorum), dayflower, VA (Virginia (VA) dayflower, Commelina virginica), field bindweed (Convolvulus arvensis), cocklebur (common cocklebur, Xanthium strumarium), morningglory (Ipomoea coccinea), nightshade (eastern black nightshade, Solanum ptycanthum), kochia (Kochia scoparia), nutsedge, yellow (yellow nutsedge, Cyperus esculentus), johnsongrass (Sorghum halepense), smartweed (ladysthumb smartweed, Polygonum persicaria), and beggarticks (hairy beggarticks, Bidens pilosa), were planted into a silt loam soil and treated preemergence with test chemicals formulated in a non-phytotoxic solvent mixture which included a surfactant. At the same time, plants selected from these crop and weed species and also pigweed (Amaranthus retroflexus), waterhemp_RES1 (ALS/Triazine resistant common waterhemp, Amaranthus rudis) and waterhemp_RES2 (ALS/HPPD resistant common waterhemp, Amaranthus rudis) were planted in pots containing a planting medium comprising spaghnum peat moss, vermiculite, wetting agent and starter nutrients treated with postemergence applications of some of the test chemicals formulated in the same manner. Plants ranged in height from 2 to 18 cm for postemergence treatments (1- to 4-leaf stage).
(§2) Treated plants and controls were maintained in a greenhouse for 14 to 21 days, after which time all species were compared to controls and visually evaluated. Plant response ratings, summarized in Table E, are based on a scale of 0 to 100 where 0 is no effect and 100 is complete control. A dash (-) response means no test result.

[2] = tested on: corn (Zea mays); assay: Test F pre-/postemergence: corn; format: in vivo
Description: as §1, §2

[3] = tested on: sandbur (southern sandbur, Cenchrus echinatus); assay: Test F pre-/postemergence: sandbur; format: in vivo
Description: as §1, §2

[4] = tested on: Oilseed Rape; assay: Test C preemergence: oilseed rape; format: in vivo, Brassica napus; conditions: 125 g ai/ha, scale 0 to 100, 0 no effect, 100 complete control
[5] = tested on: lambsquarters (Chenopodium album); assay: Test F pre-/postemergence: lambsquarters; format: in vivo; conditions: Preemergence
Description: as §1, §2

[6] = tested on: waterhemp (common waterhemp, Amaranthus rudis); assay: Test E pre-/postemergence: waterhemp; format: in vivo; conditions: scale 0 to 100
Description: (§3) Seeds of plant species selected from corn (Zea mays), soybean (Glycine max), velvetleaf (Abutilon theophrasti), lambsquarters (Chenopodium album), poinsettia, wild (wild poinsettia, Euphorbia heterophylla), pigweed, palmer (palmer pigweed, Amaranthus palmeri), waterhemp (common waterhemp, Amaranthus rudis), smartweed (ladysthumb smartweed, Polygonum persicaria), surinam grass (Brachiaria decumbens), crabgrass, large (large crabgrass, Digitaria sanguinalis), crabgrass, Brazil (Brazilian crabgrass, Digitaria horizontalis), panicum, fall (fall panicum, Panicum dichotomiflorum), foxtail, giant (giant foxtail, Setaria faberii), foxtail, green (green foxtail, Setaria viridis), goosegrass (Eleusine indica), johnsongrass (Sorghum halepense), ragweed (common ragweed, Ambrosia elation), barnyardgrass (Echinochloa crus-galli), sandbur (southern sandbur, Cenchrus echinatus), arrowleaf sida (Sida rhombifolia), ryegrass, Italian (Italian ryegrass, Lolium multiflorum), dayflower, (VA) (Virginia dayflower, Commelina virginica), field bindweed (Convolvulus arvensis), cocklebur (common cocklebur, Xanthium strumarium), morningglory (Ipomoea coccinea), nightshade (eastern black nightshade, Solanum ptycanthum), kochia (Kochia scoparia), nutsedge, yellow (yellow nutsedge, Cyperus esculentus) and beggarticks (hairy beggarticks, Bidens pilosa) were planted into a silt loam soil and treated preemergence with test chemicals formulated in a non-phytotoxic solvent mixture which included a surfactant. At the same time, plants selected from these crop and weed species were planted in pots containing a growing medium comprising spaghnum peat moss, vermiculite, wetting agent and starter nutrients and treated with postemergence applications of some of the test chemicals formulated in the same manner. Plants ranged in height from 2 to 18 cm for postemergence treatments (1- to 4-leaf stage).
as §2

[7] = tested on: cocklebur (common cocklebur, Xanthium strumarium); assay: Test E pre-/postemergence: cocklebur; format: in vivo; conditions: Preemergence, scale 0 to 100
Description: as §3, §2

[8] = tested on: foxtail, green (green foxtail, Setaria viridis); assay: Test E pre-/postemergence: foxtail, green; format: in vivo; conditions: Preemergence, scale 0 to 100
Description: as §3, §2

[9] = Postemergence, 4 g ai/ha, scale 0 to 100
[10] = Postemergence, 8 g ai/ha, scale 0 to 100
[11] = Postemergence, 16 g ai/ha, scale 0 to 100
[12] = Postemergence, 31 g ai/ha, scale 0 to 100
[13] = Postemergence, 62 g ai/ha, scale 0 to 100
[14] = Preemergence, 4 g ai/ha, scale 0 to 100, 0 no effect, 100 complete control
[15] = Preemergence, 8 g ai/ha, scale 0 to 100, 0 no effect, 100 complete control
[16] = Preemergence, 16 g ai/ha, scale 0 to 100 (0 no effect, 100 complete control)
[17] = Preemergence, 31 g ai/ha, scale 0 to 100 (0 no effect, 100 complete control)
[18] = Preemergence, 62 g ai/ha, scale 0 to 100
[19] = 16 g ai/ha, scale 0 to 100 (0 no effect, 100 complete control)
[20] = 31 g ai/ha, scale 0 to 100 (0 no effect, 100 complete control)
[21] = Postemergence, 125 g ai/ha, scale 0 to 100
[22] = Preemergence, 125 g ai/ha, scale 0 to 100

Cc1nn(-c2ccc(C(F)(F)F)c(F)c2)nc1Cc1ccnc(C(F)(F)F)c1 [Compound 162]
Plant response rating, Panicum, Fall [1, 9]: 15 | Plant response rating, Panicum, Fall [1, 10]: 20 | Plant response rating, Panicum, Fall [1, 11]: 20 | Plant response rating, Panicum, Fall [1, 12]: 25 | Plant response rating, Panicum, Fall [1, 13]: 30 | Plant response rating, Panicum, Fall [1, 14]: 0 | Plant response rating, Panicum, Fall [1, 15]: 0 | Plant response rating, Panicum, Fall [1, 16]: 100 | Plant response rating, Panicum, Fall [1, 17]: 100 | Plant response rating, Corn [2, 9]: 5 | Plant response rating, Corn [2, 10]: 5 | Plant response rating, Corn [2, 11]: 10 | Plant response rating, Corn [2, 12]: 10 | Plant response rating, Corn [2, 13]: 10 | Plant response rating, Corn [2, 14]: 0 | Plant response rating, Corn [2, 15]: 0 | Plant response rating, Corn [2, 16]: 0 | Plant response rating, Corn [2, 17]: 0 | Plant response rating, Corn [2, 18]: 0 | Plant response rating, Sandbur [3, 9]: 10 | Plant response rating, Sandbur [3, 10]: 10 | Plant response rating, Sandbur [3, 11]: 15 | Plant response rating, Sandbur [3, 12]: 20 | Plant response rating, Sandbur [3, 13]: 20 | Plant response rating, Sandbur [3, 14]: 0 | Plant response rating, Sandbur [3, 15]: 0 | Plant response rating, Sandbur [3, 16]: 5 | Plant response rating, Sandbur [3, 17]: 15 | Plant response rating, Oilseed Rape [4]: 100 | Plant response rating, Lambsquarters ([5]; 4 g ai/ha, scale 0 to 100, 0 no effect, 100 complete control): 0 | Plant response rating, Lambsquarters ([5]; 8 g ai/ha, scale 0 to 100, 0 no effect, 100 complete control): 0 | Plant response rating, Lambsquarters [5, 19]: 98 | Plant response rating, Lambsquarters [5, 20]: 98 | Plant response rating, Lambsquarters ([5]; 62 g ai/ha, scale 0 to 100): 98

Cc1nn(-c2ccc(F)c(F)c2)nc1Oc1ccnc(C(F)(F)F)c1 [Compound 145]
Plant response rating, Panicum, Fall [1, 10]: 10 | Plant response rating, Panicum, Fall [1, 11]: 25 | Plant response rating, Panicum, Fall [1, 12]: 40 | Plant response rating, Panicum, Fall [1, 13]: 40 | Plant response rating, Panicum, Fall [1, 21]: 40 | Plant response rating, Corn [2, 10]: 5 | Plant response rating, Corn [2, 11]: 10 | Plant response rating, Corn [2, 12]: 10 | Plant response rating, Corn [2, 13]: 10 | Plant response rating, Corn [2, 21]: 10 | Plant response rating, Sandbur [3, 10]: 10 | Plant response rating, Sandbur [3, 11]: 20 | Plant response rating, Sandbur [3, 12]: 30 | Plant response rating, Sandbur [3, 13]: 35 | Plant response rating, Sandbur [3, 21]: 35

Cc1nn(-c2ccc(C(F)(F)F)cc2)nc1Cc1ccnc(C(F)(F)F)c1 [Compound 47, 4-[[5-methyl-2-[4-(trifluoromethyl)phenyl]-2H-1,2,3-triazol-4-yl]methyl]-2-(trifluoromethyl)pyridine]
Plant response rating: Waterhemp ([6]; Postemergence, 250 g ai/ha): 95 | Plant response rating: Waterhemp ([6]; Postemergence, 16 g ai/ha): 60 | Plant response rating: Waterhemp ([6]; Postemergence, 31 g ai/ha): 70 | Plant response rating: Waterhemp ([6]; Postemergence, 62 g ai/ha): 80 | Plant response rating: Waterhemp ([6]; Postemergence, 125 g ai/ha): 85 | Plant response rating: Waterhemp ([6]; Preemergence, 16 g ai/ha): 100 | Plant response rating: Waterhemp ([6]; Preemergence, 31 g ai/ha): 100 | Plant response rating: Waterhemp ([6]; Preemergence, 62 g ai/ha): 100 | Plant response rating: Waterhemp ([6]; Preemergence, 125 g ai/ha): 100 | Plant response rating: Waterhemp ([6]; Preemergence, 250 g ai/ha): 100 | Plant response rating: Cocklebur ([7]; 16 g ai/ha): 0 | Plant response rating: Cocklebur ([7]; 31 g ai/ha): 10 | Plant response rating: Cocklebur ([7]; 62 g ai/ha): 20 | Plant response rating: Cocklebur ([7]; 125 g ai/ha): 35 | Plant response rating: Cocklebur ([7]; 250 g ai/ha): 50 | Plant response rating: Foxtail, Green ([8]; 16 g ai/ha): 85 | Plant response rating: Foxtail, Green ([8]; 31 g ai/ha): 100 | Plant response rating: Foxtail, Green ([8]; 62 g ai/ha): 100 | Plant response rating: Foxtail, Green ([8]; 125 g ai/ha): 100 | Plant response rating: Foxtail, Green ([8]; 250 g ai/ha): 100

CCc1nn(-c2ccc(F)cc2)nc1Oc1ccnc(C(F)(F)F)c1 [Compound 166]
Plant response rating, Oilseed Rape [4]: 90

Fc1ccc(-n2nc(Cc3ccnc(C(F)(F)F)c3)c(OCC(F)(F)F)n2)cc1 [Compound 142]
Plant response rating, Panicum, Fall [1, 16]: 25 | Plant response rating, Panicum, Fall [1, 17]: 65 | Plant response rating, Panicum, Fall [1, 22]: 100 | Plant response rating, Corn [2, 16]: 0 | Plant response rating, Corn [2, 17]: 0 | Plant response rating, Corn [2, 18]: 0 | Plant response rating, Corn [2, 22]: 0 | Plant response rating, Sandbur [3, 16]: 5 | Plant response rating, Sandbur [3, 17]: 5 | Plant response rating, Sandbur [3, 22]: 70 | Plant response rating, Lambsquarters [5, 19]: 0 | Plant response rating, Lambsquarters [5, 20]: 65 | Plant response rating, Lambsquarters ([5]; 62 g ai/ha, scale 0 to 100): 98 | Plant response rating, Lambsquarters ([5]; 125 g ai/ha, scale 0 to 100): 98
